The values below come from PMC5218480 (PLoS ONE, 2017).

This assay concerns MV-4-11 cells. In words: Gene expression microarray analysis (Affymetrix PrimeView) and GSEA. It is filed as cell-based, human. Further details: RFU PODN (11730768_x_at) / Fold change /veh PODN (11730768_x_at) / RFU LINC00158 (11744669_a_at) / Fold change /veh LINC00158 (11744669_a_at) / RFU DUSP10 (11751237_a_at) / Fold change /veh DUSP10 (11751237_a_at) / RFU ID3 (11757404_x_at) / Fold change /veh ID3 (11757404_x_at) / RFU PLEKHG5 (11737974_s_at) / Fold change /veh PLEKHG5 (11737974_s_at) / RFU LRRC4B (11730491_at) / Fold change /veh LRRC4B (11730491_at) / RFU GIMAP4 (11747438_a_at) / Fold change /veh GIMAP4 (11747438_a_at) / RFU KRT8 (11758183_x_at) / Fold change /veh KRT8 (11758183_x_at) / RFU CNN1 (11734310_a_at) / Fold change /veh CNN1 (11734310_a_at) / RFU VPS37D (11726825_at) / Fold change /veh VPS37D (11726825_at) / RFU C10orf10 (11716522_x_at) / Fold change /veh C10orf10 (11716522_x_at) / RFU KIR2DL2 /// KIR2DL4 /// KIR2DL5A /// KIR2DL5B /// KIR2DS1 /// KIR2DS2 /// KIR2DS3 /// KIR2DS4 /// KIR3DL3 /// KIR3DL3 /// KIR3DS1 (11738374_at) / Fold change /veh KIR2DL2 /// KIR2DL4 /// KIR2DL5A /// KIR2DL5B /// KIR2DS1 /// KIR2DS2 /// KIR2DS3 /// KIR2DS4 /// KIR3DL3 /// KIR3DL3 /// KIR3DS1 (11738374_at) / RFU C1QL1 (11718748_at) / Fold change /veh C1QL1 (11718748_at) / RFU TMPRSS4 (11747572_a_at) / Fold change /veh TMPRSS4 (11747572_a_at) / RFU HAMP (11756126_x_at) / Fold change /veh HAMP (11756126_x_at) / RFU RNFT2 (11725882_a_at) / Fold change /veh RNFT2 (11725882_a_at) / RFU NR4A2 (11747474_a_at) / Fold change /veh NR4A2 (11747474_a_at) / RFU ABCC12 (11746883_a_at) / Fold change /veh ABCC12 (11746883_a_at) / RFU TMEM136 (11760407_x_at) / Fold change /veh TMEM136 (11760407_x_at) / RFU CLDN22 /// WWC2 (11732394_at) / Fold change /veh CLDN22 /// WWC2 (11732394_at) / RFU HLA-DPB1 (11760878_x_at) / Fold change /veh HLA-DPB1 (11760878_x_at) / RFU SPINT1 (11716480_a_at) / Fold change /veh SPINT1 (11716480_a_at) / RFU GAP43 (11754022_s_at) / Fold change /veh GAP43 (11754022_s_at) / RFU A4GNT (11735810_at) / Fold change /veh A4GNT (11735810_at) / RFU PRB3 (11715151_x_at) / Fold change /veh PRB3 (11715151_x_at) / RFU TUBB4B (11761932_at) / Fold change /veh TUBB4B (11761932_at) / RFU CAPN14 (11732068_a_at) / Fold change /veh CAPN14 (11732068_a_at) / RFU TMCC2 (11721928_a_at) / Fold change /veh TMCC2 (11721928_a_at) / RFU IRGQ (11745062_a_at) / Fold change /veh IRGQ (11745062_a_at) / RFU FAM174B (11720279_a_at) / Fold change /veh FAM174B (11720279_a_at) / RFU TMPRSS4 (11748680_a_at) / Fold change /veh TMPRSS4 (11748680_a_at) / RFU FAM212B (11763350_a_at) / Fold change /veh FAM212B (11763350_a_at) / RFU PLEKHG5 (11743358_a_at) / Fold change /veh PLEKHG5 (11743358_a_at) / RFU ZSCAN30 (11745921_a_at) / Fold change /veh ZSCAN30 (11745921_a_at) / RFU CMKLR1 (11741424_a_at) / Fold change /veh CMKLR1 (11741424_a_at) / RFU LOC101060620 /// MAPK8IP1 (11723275_at) / Fold change /veh LOC101060620 /// MAPK8IP1 (11723275_at) / RFU SPTSSB (11747773_x_at) / Fold change /veh SPTSSB (11747773_x_at) / RFU PRSS12 (11739890_at) / Fold change /veh PRSS12 (11739890_at) / RFU BIN1 (11741810_x_at) / Fold change /veh BIN1 (11741810_x_at) / RFU WNT11 (11732464_a_at) / Fold change /veh WNT11 (11732464_a_at) / RFU C10orf10 (11716521_a_at) / Fold change /veh C10orf10 (11716521_a_at) / RFU C5orf56 (11738089_at) / Fold change /veh C5orf56 (11738089_at) / RFU CYB561 (11721691_x_at) / Fold change /veh CYB561 (11721691_x_at) / RFU ANKRD19P (11752326_a_at) / Fold change /veh ANKRD19P (11752326_a_at) / RFU OR2T12 /// OR2T33 /// OR2T8 (11738714_s_at) / Fold change /veh OR2T12 /// OR2T33 /// OR2T8 (11738714_s_at) / RFU VCAN (11748164_a_at) / Fold change /veh VCAN (11748164_a_at) / RFU JSRP1 (11732532_at) / Fold change /veh JSRP1 (11732532_at) / RFU KRTAP10-11 (11738290_x_at) / Fold change /veh KRTAP10-11 (11738290_x_at) / RFU MYO3A (11730013_a_at) / Fold change /veh MYO3A (11730013_a_at) / RFU EBF3 (11725865_a_at) / Fold change /veh EBF3 (11725865_a_at) / RFU CAMK2N1 (11719241_x_at) / Fold change /veh CAMK2N1 (11719241_x_at) / RFU C5orf56 (11738088_a_at) / Fold change /veh C5orf56 (11738088_a_at) / RFU OLFML3 (11715873_a_at) / Fold change /veh OLFML3 (11715873_a_at) / RFU LOC100653217 /// NTM (11731650_a_at) / Fold change /veh LOC100653217 /// NTM (11731650_a_at) / RFU MAPK11 (11762145_a_at) / Fold change /veh MAPK11 (11762145_a_at) / RFU FIZ1 (11724087_x_at) / Fold change /veh FIZ1 (11724087_x_at) / RFU OASL (11726364_x_at) / Fold change /veh OASL (11726364_x_at) / RFU SOX15 (11748057_x_at) / Fold change /veh SOX15 (11748057_x_at) / RFU CD79A (11719716_a_at) / Fold change /veh CD79A (11719716_a_at) / RFU HIST1H1D (11736915_at) / Fold change /veh HIST1H1D (11736915_at) / RFU CASKIN2 (11723855_a_at) / Fold change /veh CASKIN2 (11723855_a_at) / RFU LOC730098 (11760151_x_at) / Fold change /veh LOC730098 (11760151_x_at) / RFU OR4N2 (11742367_at) / Fold change /veh OR4N2 (11742367_at) / RFU PRRT2 (11749266_a_at) / Fold change /veh PRRT2 (11749266_a_at) / RFU SNX32 (11753110_a_at) / Fold change /veh SNX32 (11753110_a_at) / RFU CDHR5 (11726645_a_at) / Fold change /veh CDHR5 (11726645_a_at) / RFU RCAN1 (11760418_a_at) / Fold change /veh RCAN1 (11760418_a_at) / RFU FAM167A (11723789_a_at) / Fold change /veh FAM167A (11723789_a_at) / RFU FAM26E (11764081_at) / Fold change /veh FAM26E (11764081_at) / RFU ISYNA1 (11749810_s_at) / Fold change /veh ISYNA1 (11749810_s_at) / RFU ACY1 (11761880_at) / Fold change /veh ACY1 (11761880_at) / RFU 11764098_at / Fold change /veh 11764098_at / RFU SAMD14 (11745864_x_at) / Fold change /veh SAMD14 (11745864_x_at) / RFU NPB (11741838_a_at) / Fold change /veh NPB (11741838_a_at) / RFU TMPRSS6 (11731388_a_at) / Fold change /veh TMPRSS6 (11731388_a_at) / RFU KRTAP10-2 (11738614_at) / Fold change /veh KRTAP10-2 (11738614_at) / RFU ARHGAP8 /// PRR5-ARHGAP8 (11727945_x_at) / Fold change /veh ARHGAP8 /// PRR5-ARHGAP8 (11727945_x_at) / RFU KRTAP5-7 /// NADSYN1 (11734609_at) / Fold change /veh KRTAP5-7 /// NADSYN1 (11734609_at) / RFU RASL12 (11751679_a_at) / Fold change /veh RASL12 (11751679_a_at) / RFU CDKN2B (11736163_a_at) / Fold change /veh CDKN2B (11736163_a_at) / RFU PRF1 (11729649_at) / Fold change /veh PRF1 (11729649_at) / RFU, ZNF638 /// ZNF638-IT1 / Fold change vs veh, ZNF638 /// ZNF638-IT1 / RFU, PANK3 / Fold change vs veh, PANK3 / RFU, SH3YL1 / Fold change vs veh, SH3YL1 / RFU, ZEB2 / Fold change vs veh, ZEB2 / RFU, NRIP1 / Fold change vs veh, NRIP1 / RFU, PTTG1IP / Fold change vs veh, PTTG1IP / RFU, CAPN2 / Fold change vs veh, CAPN2 / RFU, MED14 / Fold change vs veh, MED14 / RFU, SNORA58 / Fold change vs veh, SNORA58 / RFU, C1orf63 / Fold change vs veh, C1orf63 / RFU, LRRFIP1 / Fold change vs veh, LRRFIP1 / RFU, NDUFAF7 / Fold change vs veh, NDUFAF7 / RFU, SLC12A2 / Fold change vs veh, SLC12A2 / RFU, IBTK / Fold change vs veh, IBTK / RFU, ESF1 / Fold change vs veh, ESF1 / Fold change vs veh, TMEM50B / RFU, TAOK1 / Fold change vs veh, TAOK1 / RFU, ACBD3 / Fold change vs veh, ACBD3 / RFU, TMA16 / Fold change vs veh, TMA16 / RFU, RWDD3 / Fold change vs veh, RWDD3 / RFU, BCAT1 / Fold change vs veh, BCAT1 / RFU, EDEM3 / Fold change vs veh, EDEM3 / RFU, TMEM33 / Fold change vs veh, TMEM33 / RFU, WDR75 / Fold change vs veh, WDR75 / RFU, AHCTF1 / Fold change vs veh, AHCTF1 / RFU, TFRC / Fold change vs veh, TFRC / RFU, ZDHHC17 / Fold change vs veh, ZDHHC17 / RFU, NOM1 / Fold change vs veh, NOM1 / RFU, ARL8B / Fold change vs veh, ARL8B / RFU, ZBTB11 / Fold change vs veh, ZBTB11 / RFU, TAMM41 / Fold change vs veh, TAMM41 / RFU, KIAA1704 /// LOC100996395 / Fold change vs veh, KIAA1704 /// LOC100996395 / RFU, ING1 / Fold change vs veh, ING1 / RFU, TRMT61B / Fold change vs veh, TRMT61B / RFU, FUBP3 / Fold change vs veh, FUBP3 / RFU, TP53 / Fold change vs veh, TP53 / RFU, TNKS2 / Fold change vs veh, TNKS2 / RFU, ZFP14 / Fold change vs veh, ZFP14 / RFU, ACTR2 / Fold change vs veh, ACTR2 / RFU, PPP3R1 / Fold change vs veh, PPP3R1 / RFU, PIK3R1 / Fold change vs veh, PIK3R1 / RFU, HNRNPA1 / Fold change vs veh, HNRNPA1 / RFU, RNF170 / Fold change vs veh, RNF170 / RFU, ZNF28 / Fold change vs veh, ZNF28 / RFU, RNGTT / Fold change vs veh, RNGTT / RFU, OGT / Fold change vs veh, OGT / RFU, BRD1 / Fold change vs veh, BRD1 / RFU, MARS / Fold change vs veh, MARS / RFU, ZNF655 / Fold change vs veh, ZNF655 / RFU, FAHD1 / Fold change vs veh, FAHD1 / RFU, BDP1 / Fold change vs veh, BDP1 / RFU, LRRCC1 / Fold change vs veh, LRRCC1 / RFU, ARID1A / Fold change vs veh, ARID1A / RFU, ZNF146 / Fold change vs veh, ZNF146 / RFU, ZNF330 / Fold change vs veh, ZNF330 / RFU, GPN3 / Fold change vs veh, GPN3 / RFU, C9orf123 / Fold change vs veh, C9orf123 / RFU, N4BP2L2 / Fold change vs veh, N4BP2L2 / RFU, ARFIP1 / Fold change vs veh, ARFIP1 / RFU, FAM179B / Fold change vs veh, FAM179B / RFU, BCL10 / Fold change vs veh, BCL10 / RFU, UHRF1BP1L / Fold change vs veh, UHRF1BP1L / RFU, BET1 / Fold change vs veh, BET1 / RFU, CNOT2 / Fold change vs veh, CNOT2 / RFU, ZNF268 / Fold change vs veh, ZNF268 / Fold change vs veh, ZNF507 / RFU, DGCR2 / Fold change vs veh, DGCR2 / RFU, WDSUB1 / Fold change vs veh, WDSUB1 / Fold change vs veh, HSP90B1 /// MIR3652 / RFU, ADSS / Fold change vs veh, ADSS / RFU, GK / Fold change vs veh, GK / RFU, ZNF148 / Fold change vs veh, ZNF148 / RFU, TAF9 / Fold change vs veh, TAF9 / RFU, SLC1A5 / Fold change vs veh, SLC1A5 / RFU, SLMO2 / Fold change vs veh, SLMO2 / RFU, ABCC4 / Fold change vs veh, ABCC4 / RFU, LOC101060439 /// RAP1B / Fold change vs veh, LOC101060439 /// RAP1B / RFU, RFX7 / Fold change vs veh, RFX7 / RFU, GTPBP10 / Fold change vs veh, GTPBP10 / RFU, CNEP1R1 / Fold change vs veh, CNEP1R1 / RFU, BIVM-ERCC5 /// ERCC5 / Fold change vs veh, BIVM-ERCC5 /// ERCC5 / RFU, ILF3 / Fold change vs veh, ILF3 / RFU 11762660_at / Fold change /veh 11762660_at / RFU VCAN (11757783_s_at) / Fold change /veh VCAN (11757783_s_at) / RFU DDX43 (11728927_at) / Fold change /veh DDX43 (11728927_at) / RFU KRT8 (11758188_x_at) / Fold change /veh KRT8 (11758188_x_at) / RFU NKD1 (11759106_at) / Fold change /veh NKD1 (11759106_at) / RFU SRD5A1 (11742802_a_at) / Fold change /veh SRD5A1 (11742802_a_at) / RFU TPSAB1 /// TPSB2 (11721975_s_at) / Fold change /veh TPSAB1 /// TPSB2 (11721975_s_at) / RFU GSTM3 (11746129_a_at) / Fold change /veh GSTM3 (11746129_a_at) / RFU IL23R (11737362_x_at) / Fold change /veh IL23R (11737362_x_at) / RFU TMEM51 (11727254_a_at) / Fold change /veh TMEM51 (11727254_a_at) / RFU PIWIL2 (11732686_x_at) / Fold change /veh PIWIL2 (11732686_x_at) / RFU ORM1 (11744905_x_at) / Fold change /veh ORM1 (11744905_x_at) / RFU CCDC152 (11743942_at) / Fold change /veh CCDC152 (11743942_at) / RFU ECM1 (11717891_a_at) / Fold change /veh ECM1 (11717891_a_at) / RFU IL23R (11748794_a_at) / Fold change /veh IL23R (11748794_a_at) / RFU TNFAIP8L3 (11732012_x_at) / Fold change /veh TNFAIP8L3 (11732012_x_at) / RFU MBOAT4 (11741988_at) / Fold change /veh MBOAT4 (11741988_at) / RFU 11764193_at / Fold change /veh 11764193_at / RFU TMEM53 (11763286_at) / Fold change /veh TMEM53 (11763286_at) / RFU MAGEB2 (11727129_at) / Fold change /veh MAGEB2 (11727129_at) / RFU TMEM200A (11744735_a_at) / Fold change /veh TMEM200A (11744735_a_at) / RFU CCDC152 (11751479_a_at) / Fold change /veh CCDC152 (11751479_a_at) / RFU FAM211A (11726209_a_at) / Fold change /veh FAM211A (11726209_a_at) / RFU RGS16 (11746705_a_at) / Fold change /veh RGS16 (11746705_a_at) / RFU VCAN (11755009_s_at) / Fold change /veh VCAN (11755009_s_at) / RFU RHOB (11743442_s_at) / Fold change /veh RHOB (11743442_s_at) / RFU RGS16 (11720943_a_at) / Fold change /veh RGS16 (11720943_a_at) / RFU RGS16 (11720944_at) / Fold change /veh RGS16 (11720944_at) / RFU, VPS4B / Fold change vs veh, VPS4B / RFU, CREB1 / Fold change vs veh, CREB1 / RFU, DNAJC13 / Fold change vs veh, DNAJC13 / RFU, GNAQ / Fold change vs veh, GNAQ / RFU, CDK5R1 / Fold change vs veh, CDK5R1 / RFU, ZRANB3 / Fold change vs veh, ZRANB3 / RFU, CUL4A / Fold change vs veh, CUL4A / RFU, CCNY / Fold change vs veh, CCNY / RFU, UFL1 / Fold change vs veh, UFL1 / RFU, COG3 / Fold change vs veh, COG3 / RFU, DIAPH2 / Fold change vs veh, DIAPH2 / RFU, SKA2 / Fold change vs veh, SKA2 / RFU, AFF3 / Fold change vs veh, AFF3 / RFU, LMF1 / Fold change vs veh, LMF1 / RFU, IPO11 / Fold change vs veh, IPO11 / RFU, DFFB / Fold change vs veh, DFFB / RFU, FOXP1 / Fold change vs veh, FOXP1 / RFU, CARD8 / Fold change vs veh, CARD8 / RFU, STRN3 / Fold change vs veh, STRN3 / RFU, ADK / Fold change vs veh, ADK / RFU, RASSF2 / Fold change vs veh, RASSF2 / RFU, WIPF1 / Fold change vs veh, WIPF1 / RFU, LARP1B / Fold change vs veh, LARP1B / RFU, RASA1 / Fold change vs veh, RASA1 / RFU, RB1 / Fold change vs veh, RB1 / RFU, PPFIA1 / Fold change vs veh, PPFIA1 / RFU, MAT2A / Fold change vs veh, MAT2A / RFU, CCT5 / Fold change vs veh, CCT5 / RFU, WDR92 / Fold change vs veh, WDR92 / RFU, CUX1 / Fold change vs veh, CUX1 / RFU, TTC7A / Fold change vs veh, TTC7A / RFU, TMEM135 / Fold change vs veh, TMEM135 / RFU, DEPTOR / Fold change vs veh, DEPTOR / RFU, CPM / Fold change vs veh, CPM / RFU, DNAJB6 / Fold change vs veh, DNAJB6 / RFU, CACNA2D3 / Fold change vs veh, CACNA2D3 / RFU, DTX4 / Fold change vs veh, DTX4 / RFU, TFCP2 / Fold change vs veh, TFCP2 / RFU, GMCL1 /// GMCL1P1 / Fold change vs veh, GMCL1 /// GMCL1P1 / RFU, AEBP2 / Fold change vs veh, AEBP2 / RFU, SNHG1 /// SNORD22 /// SNORD25 /// SNORD26 /// SNORD27 /// SNORD28 /// SNORD29 /// SNORD31 / Fold change vs veh, SNHG1 /// SNORD22 /// SNORD25 /// SNORD26 /// SNORD27 /// SNORD28 /// SNORD29 /// SNORD31 / Fold change (Aza/veh), C12orf56 (ProbeSet 11735607_a_at) / Fold change (ACY-1035/veh), C12orf56 (ProbeSet 11735607_a_at) / Fold change (Aza/veh), FGFR1OP (ProbeSet 11751329_s_at) / Fold change (ACY-1035/veh), FGFR1OP (ProbeSet 11751329_s_at) / Fold change (Aza/veh), VPS36 (ProbeSet 11739960_a_at) / Fold change (ACY-1035/veh), VPS36 (ProbeSet 11739960_a_at) / RFU SYPL1 (11715823_x_at) / Fold change /veh SYPL1 (11715823_x_at) / RFU IGFBP7 (11715501_s_at) / Fold change /veh IGFBP7 (11715501_s_at) / RFU REEP3 (11722064_at) / Fold change /veh REEP3 (11722064_at) / RFU IGLL1 (11728026_x_at) / Fold change /veh IGLL1 (11728026_x_at): dose or concentration left out as unconfirmed. As to conditions: ProbeSet 11722302_a_at; LIST B.

In the case of `Nc1ccc(-c2cccs2)cc1NC(=O)c1ccc2c(c1)cc(C1CC1)n2CCN1CCOCC1` [ACY-1035], the “Fold change vs veh, LRRFIP1” value stood at 0.98.
